Source: patent US10456434B2, “Extracts obtained from cell line cultures from plants belonging to the Oleaceae family (e.g. Syringa vulgaris), their preparation and use” (CRODA ITALIANA S. P. A., priority 2005, dated 2019)

What was measured:
[1] = test system: tyrosinase; assay: Tyrosinase inhibition, oxidation of L-tyrosine to L-DOPA; format: biochemical; conditions: 250 μg/ml
Source text: (§1) The enzyme tyrosinase catalyses the reactions leading to melanin biosynthesis from tyrosine. […] Substances inhibiting tyrosinase activity produce clearing/bleaching effect on the skin, since they block melanin synthesis. The method used to determine the inhibition of tyrosinase activity in the oxidation reaction of L-tyrosine to L-DOPA is that described in Kim et al. […] Biol. Pharm. Bull. 28(2), 323-327, 2005). The method applied for determination of the inhibition of tyrosinase activity in the conversion of L-DOPA to DOPAquinone is that described in Masamoto et al. (Mushroom tyrosinase inhibitory activity of esculetin isolated from seeds of Euphorbia lathyris L. Biosci. Biotechnol. Biochem., 67(3), 631-634, 2003).

[2] = test system: tyrosinase; assay: Tyrosinase inhibition, conversion of L-DOPA to DOPAquinone; format: biochemical, Mushroom; conditions: 100 μg/ml
Source text: as §1

[3] = Superoxide anion chemiluminescent assay (hypoxanthine/xanthine oxidase); format: biochemical; conditions: mean of 6 independent assays
Source text: (§2) The superoxide anion has been measured by a chemiluminescent assay based on the hypoxanthine (HPX)/xanthine oxidase (XOD) reaction using the Lumimax Superoxide Anion Detection Kit (Stratagene, La Jolla, Calif., USA) and following the manufacturer's instructions. Hydroxyl radical scavenger activity has been measured by means of the Fenton reaction for the production of hydroxyl radicals and chemiluminescent dosage (using a Victor^3 chemiluminometer, Wallac, Finland) with luminol. Peroxynitrite ions have been determined by means of dosage with a spontaneous generator of peroxynitrites (3-morpholinosidnonimine hydrochloride; SIN-1) and a stable reagent for the nitroxyl ions (2-(4-carboxyphenyl)-4,4,5,5-tetramethylimidazoline-1-oxyl-3-oxide potassium salt PTIO spin trap) then dosed by means of electron spin resonance (ESR) using a. Nippon Denshi JES-FR30.
(§3) Extract 1 and Extract 2 listed in Table are derived from Syringa vulgaris cell cultures. […] The results are expressed as the concentration inhibiting 50% of activity (IC50). The values reported are the means of 6 independent assays.

[4] = Hydroxyl radical scavenger activity (Fenton reaction, luminol chemiluminescence); format: biochemical; conditions: mean of 6 independent assays
Source text: as §2, with “Syringa vulgaris Extracts 1 and 2, prepared as described in examples 1 and 2, have been used to assess in vitro antioxidant action with specific oxygen radical generating systems such as the superoxide anion (O2^−), the hydroxyl radical (HO), the peroxynitrite radical (ONOO^−) and the inhibition of lipid peroxidation. The” for “The”, “JES-FR30. […].” for “JES-FR30.”
Extract 1 and Extract 2 listed in Table are derived from Syringa vulgaris cell cultures. In said extracts, verbascoside is present at 0.82% and 35% by weight respectively. […]

[5] = Peroxynitrite assay (SIN-1, PTIO spin trap, ESR); format: biochemical; conditions: mean of 6 independent assays
Source text: as §2, §3

[6] = test system: A549 cells; assay: Oxidative stress (ROS, DCF fluorescence) in A549 cell cultures; format: cell-based, human; conditions: 1 mM, A549, galactose oxidative stress
Method: 10×10^5 A549 cells (ATCC-CCL195) have been seeded into wells with 3 ml of DMEM/medium (HAM'S F12K) with 10% FCS and incubated at 37° C. in a 5% CO2, water vapour saturated atmosphere. After 24 hours the culture medium is replaced by medium supplemented with 5.55 mM galactose, which is left in contact with the cells for 20 hours. The medium is once again replaced with medium containing galactose in the presence or absence of the test compound. After 5 hours, quantitative measurement of the ROSs is performed by washing the cells with phosphate buffer and then incubating them with 30 μM DCF-DA in buffer solution. At the end of a 15 minute incubation, excess DCF-DA is removed from the cells by washing, prior to measuring the fluorescence emitted.
Antioxidant activity measurements are performed using a (Hitachi F3010) spectrophotometer with excitation at 488 nm and measuring emission at 525 nm, and values are expressed in pmoles, by extrapolation from the calibration curve constructed using known quantities of DCF, in relation to total cellular protein. Values are thus expressed in % ages with respect to the ROS, content of the cells not subjected to oxidative stress, to which are assigned a value of 100.
Syringa vulgaris Extracts 1 and 2 and ascorbic acid have been dissolved in phosphate buffer.

Test L-tyrosine-DOPA inhibitory activity (%) [1]	Test LDOPA-DOPAquinone inhibitory activity (%) [2]	Compound	other results
94.1%	35%	O=c1cc(CO)occ1O [Kojic acid, reference compound]	–
–	–	O=C1c2c(O)cccc2C([C@@H]2O[C@H](CO)[C@@H](O)[C@H](O)[C@H]2O)c2cc(CO)cc(O)c21 (some centres unmarked) [Aloin, reference compound]	Superoxide radical (IC50) [3]: 7.6 µg/mL; Hydroxyl radial (IC50) [4]: 2.9 µg/mL; Peroxynitrite radical (IC50) [5]: 12.3 µg/mL
56.9%	0%	Oc1cccc(O)c1 [Resorcinol, reference compound]	–
–	–	O=C1O[C@H]([C@@H](O)CO)C(O)=C1O [Ascorbic acid, reference compound]	ROS level (%) [6]: 62.91 ± 3.82 %
